ChEMBL document CHEMBL1641539 (Bioorg Med Chem Lett, 2011)

Experiments:
[1] = target: Protein kinase C alpha type (Homo sapiens) (UniProt P17252); assay: Inhibition of human PKCalpha at 10 uM after 60 mins by TR-FRET assay; values are per cent of control
[2] = target: Tyrosine-protein kinase Fer (Homo sapiens) (UniProt P16591); assay: Inhibition of human Fer at 10 uM after 60 mins by TR-FRET assay; values are per cent of control
[3] = target: Mast/stem cell growth factor receptor Kit (Homo sapiens) (UniProt P10721); assay: Inhibition of human c-Kit at 10 uM after 60 mins by TR-FRET assay; values are per cent of control
Sequence of Mast/stem cell growth factor receptor Kit (Homo sapiens) (P10721 whole entry): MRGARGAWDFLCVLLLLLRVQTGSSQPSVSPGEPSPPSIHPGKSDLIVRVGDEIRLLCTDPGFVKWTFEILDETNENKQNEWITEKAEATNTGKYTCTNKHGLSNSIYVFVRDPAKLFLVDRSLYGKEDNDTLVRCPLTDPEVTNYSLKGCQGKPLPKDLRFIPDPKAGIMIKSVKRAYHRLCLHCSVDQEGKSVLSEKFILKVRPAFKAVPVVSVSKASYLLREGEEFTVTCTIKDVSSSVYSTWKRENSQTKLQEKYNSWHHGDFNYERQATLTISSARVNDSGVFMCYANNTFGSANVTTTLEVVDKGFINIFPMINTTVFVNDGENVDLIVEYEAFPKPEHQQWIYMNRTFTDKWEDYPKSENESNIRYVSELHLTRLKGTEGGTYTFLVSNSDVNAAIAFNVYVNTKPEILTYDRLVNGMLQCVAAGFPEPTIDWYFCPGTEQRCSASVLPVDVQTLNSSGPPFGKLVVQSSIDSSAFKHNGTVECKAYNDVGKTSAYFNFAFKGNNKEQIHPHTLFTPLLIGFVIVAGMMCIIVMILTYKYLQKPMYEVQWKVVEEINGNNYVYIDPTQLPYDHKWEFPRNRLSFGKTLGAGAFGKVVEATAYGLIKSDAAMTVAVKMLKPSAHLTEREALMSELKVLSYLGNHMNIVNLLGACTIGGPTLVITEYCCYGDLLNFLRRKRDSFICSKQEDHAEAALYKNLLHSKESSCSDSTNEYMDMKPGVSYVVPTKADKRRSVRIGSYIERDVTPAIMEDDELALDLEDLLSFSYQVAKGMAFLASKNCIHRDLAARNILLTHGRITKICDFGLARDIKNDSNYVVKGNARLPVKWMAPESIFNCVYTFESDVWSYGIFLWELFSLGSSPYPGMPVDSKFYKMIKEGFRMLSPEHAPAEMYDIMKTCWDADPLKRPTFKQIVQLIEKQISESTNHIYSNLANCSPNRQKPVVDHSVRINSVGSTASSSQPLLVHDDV

[4] = test system: Tyrosine-protein kinase ABL1 (Homo sapiens), P00519 [Y253F]; assay: Inhibition of human Abl Y253F mutant at 10 uM after 60 mins by TR-FRET assay; values are per cent of control
[5] = target: Ribosomal protein S6 kinase alpha-4 (Homo sapiens) (UniProt O75676); assay: Inhibition of human MSK2 at 10 uM after 60 mins by TR-FRET assay; details: values are per cent of control
Sequence of Ribosomal protein S6 kinase alpha-4 (Homo sapiens) (O75676 whole entry, looked up): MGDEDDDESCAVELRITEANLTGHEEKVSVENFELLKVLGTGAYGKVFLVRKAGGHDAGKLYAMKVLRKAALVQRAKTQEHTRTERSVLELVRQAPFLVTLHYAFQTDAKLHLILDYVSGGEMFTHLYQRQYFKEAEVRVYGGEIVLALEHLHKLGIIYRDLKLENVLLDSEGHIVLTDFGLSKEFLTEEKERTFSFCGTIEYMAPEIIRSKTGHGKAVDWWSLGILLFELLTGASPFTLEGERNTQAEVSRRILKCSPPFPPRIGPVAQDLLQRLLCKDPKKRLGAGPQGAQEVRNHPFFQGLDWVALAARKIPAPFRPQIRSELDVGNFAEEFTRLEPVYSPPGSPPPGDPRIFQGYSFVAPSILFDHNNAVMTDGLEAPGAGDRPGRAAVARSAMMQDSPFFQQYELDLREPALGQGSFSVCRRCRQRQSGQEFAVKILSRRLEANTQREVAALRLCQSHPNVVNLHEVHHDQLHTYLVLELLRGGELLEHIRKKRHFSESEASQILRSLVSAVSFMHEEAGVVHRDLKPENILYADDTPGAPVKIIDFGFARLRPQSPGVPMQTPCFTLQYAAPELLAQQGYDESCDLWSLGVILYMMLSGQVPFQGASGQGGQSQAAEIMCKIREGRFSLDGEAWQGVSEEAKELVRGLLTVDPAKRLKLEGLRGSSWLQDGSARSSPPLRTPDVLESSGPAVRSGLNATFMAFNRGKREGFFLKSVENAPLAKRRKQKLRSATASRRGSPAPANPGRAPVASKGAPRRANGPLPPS

[6] = target: Tyrosine-protein kinase Blk (Mus musculus) (UniProt P16277); assay: Inhibition of mouse Blk at 10 uM after 60 mins by TR-FRET assay; values are per cent of control
Sequence of Tyrosine-protein kinase Blk (Mus musculus) (P16277 whole entry): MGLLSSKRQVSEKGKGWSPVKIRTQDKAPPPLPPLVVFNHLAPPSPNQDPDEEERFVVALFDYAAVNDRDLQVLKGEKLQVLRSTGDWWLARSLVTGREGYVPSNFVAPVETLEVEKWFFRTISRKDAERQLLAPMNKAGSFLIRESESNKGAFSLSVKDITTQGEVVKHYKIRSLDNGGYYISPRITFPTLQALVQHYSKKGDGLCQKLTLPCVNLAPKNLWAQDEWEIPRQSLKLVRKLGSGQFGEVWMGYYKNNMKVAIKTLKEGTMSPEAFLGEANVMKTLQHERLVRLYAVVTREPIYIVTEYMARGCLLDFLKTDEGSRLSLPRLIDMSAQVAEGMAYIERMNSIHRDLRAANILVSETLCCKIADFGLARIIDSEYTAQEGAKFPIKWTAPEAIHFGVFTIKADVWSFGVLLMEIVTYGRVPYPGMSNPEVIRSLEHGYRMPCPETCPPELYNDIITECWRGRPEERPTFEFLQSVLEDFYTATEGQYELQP

[7] = target: Serine/threonine-protein kinase ULK3 (Homo sapiens) (UniProt Q6PHR2); assay: Inhibition of human ULK3 at 10 uM after 60 mins by TR-FRET assay; details: values are per cent of control
Sequence of Serine/threonine-protein kinase ULK3 (Homo sapiens) (Q6PHR2 whole entry): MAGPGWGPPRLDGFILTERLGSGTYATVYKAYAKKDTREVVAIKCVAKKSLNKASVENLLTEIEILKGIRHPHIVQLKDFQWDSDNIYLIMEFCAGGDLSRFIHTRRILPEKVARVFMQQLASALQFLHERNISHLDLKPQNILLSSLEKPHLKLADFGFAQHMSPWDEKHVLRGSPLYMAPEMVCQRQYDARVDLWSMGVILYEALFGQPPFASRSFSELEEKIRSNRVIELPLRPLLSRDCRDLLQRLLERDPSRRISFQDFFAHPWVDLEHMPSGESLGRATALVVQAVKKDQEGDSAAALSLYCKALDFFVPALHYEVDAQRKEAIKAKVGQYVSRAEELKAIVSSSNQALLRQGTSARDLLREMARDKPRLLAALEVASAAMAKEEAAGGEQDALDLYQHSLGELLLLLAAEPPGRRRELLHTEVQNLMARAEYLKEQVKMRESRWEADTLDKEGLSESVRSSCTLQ

[8] = test system: Mast/stem cell growth factor receptor Kit (Homo sapiens), P10721 [V654A]; assay: Inhibition of human c-Kit V654A mutant at 10 uM after 60 mins by TR-FRET assay; values are per cent of control
[9] = test system: Tyrosine-protein kinase ABL1 (Homo sapiens), P00519 [H396P]; assay: Inhibition of human Abl H396P mutant at 10 uM after 60 mins by TR-FRET assay; values are per cent of control
[10] = target: Tyrosine-protein kinase Yes (Homo sapiens) (UniProt P07947); assay: Inhibition of human Yes at 10 uM after 60 mins by TR-FRET assay; values are per cent of control
Sequence of Tyrosine-protein kinase Yes (Homo sapiens) (P07947 2-543 limits assumed): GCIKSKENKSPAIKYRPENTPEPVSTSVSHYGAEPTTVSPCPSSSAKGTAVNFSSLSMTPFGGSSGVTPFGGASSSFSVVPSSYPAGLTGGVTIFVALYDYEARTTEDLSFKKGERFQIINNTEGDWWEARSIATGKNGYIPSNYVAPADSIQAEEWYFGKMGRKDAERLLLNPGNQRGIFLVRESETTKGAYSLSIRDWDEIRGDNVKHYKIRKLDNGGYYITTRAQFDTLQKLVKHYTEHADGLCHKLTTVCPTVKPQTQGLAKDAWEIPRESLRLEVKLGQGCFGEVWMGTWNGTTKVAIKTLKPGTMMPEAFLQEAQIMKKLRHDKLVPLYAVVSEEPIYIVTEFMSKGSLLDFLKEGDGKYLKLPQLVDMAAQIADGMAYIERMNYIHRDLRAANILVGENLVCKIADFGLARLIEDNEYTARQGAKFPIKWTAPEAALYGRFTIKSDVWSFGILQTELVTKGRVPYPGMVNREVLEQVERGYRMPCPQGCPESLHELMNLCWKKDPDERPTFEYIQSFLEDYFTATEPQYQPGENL

[11] = target: Ephrin type-B receptor 1 (Homo sapiens) (UniProt P54762); assay: Inhibition of human EphB1 at 10 uM after 60 mins by TR-FRET assay; values are per cent of control
[12] = target: Ephrin type-A receptor 3 (Homo sapiens) (UniProt P29320); assay: Inhibition of human EphA3 at 10 uM after 60 mins by TR-FRET assay; values are per cent of control
Sequence of Ephrin type-A receptor 3 (Homo sapiens) (P29320 whole entry): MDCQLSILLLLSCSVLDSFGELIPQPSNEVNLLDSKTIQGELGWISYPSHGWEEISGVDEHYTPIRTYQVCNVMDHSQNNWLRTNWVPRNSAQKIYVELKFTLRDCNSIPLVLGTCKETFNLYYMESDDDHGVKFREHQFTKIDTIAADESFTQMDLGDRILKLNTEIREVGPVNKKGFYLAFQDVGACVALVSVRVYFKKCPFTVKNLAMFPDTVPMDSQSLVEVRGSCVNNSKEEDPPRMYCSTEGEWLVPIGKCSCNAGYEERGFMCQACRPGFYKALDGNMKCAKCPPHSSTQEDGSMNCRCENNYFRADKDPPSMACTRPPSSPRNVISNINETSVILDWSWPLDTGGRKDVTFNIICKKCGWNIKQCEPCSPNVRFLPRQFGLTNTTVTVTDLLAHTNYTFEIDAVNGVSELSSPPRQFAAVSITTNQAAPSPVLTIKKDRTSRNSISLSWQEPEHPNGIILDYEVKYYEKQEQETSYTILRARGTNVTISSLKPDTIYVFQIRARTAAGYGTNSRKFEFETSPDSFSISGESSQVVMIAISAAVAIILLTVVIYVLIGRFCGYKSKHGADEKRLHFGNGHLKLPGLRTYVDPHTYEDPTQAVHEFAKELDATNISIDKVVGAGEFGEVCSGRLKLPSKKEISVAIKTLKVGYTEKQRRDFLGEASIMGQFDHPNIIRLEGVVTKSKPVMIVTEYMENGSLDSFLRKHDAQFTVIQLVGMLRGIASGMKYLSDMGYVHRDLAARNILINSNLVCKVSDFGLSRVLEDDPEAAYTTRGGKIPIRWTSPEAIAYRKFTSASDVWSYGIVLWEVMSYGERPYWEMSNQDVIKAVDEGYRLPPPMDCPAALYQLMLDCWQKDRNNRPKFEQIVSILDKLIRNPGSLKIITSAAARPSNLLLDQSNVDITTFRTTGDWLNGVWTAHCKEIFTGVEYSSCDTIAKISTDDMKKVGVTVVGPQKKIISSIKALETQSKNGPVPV

[13] = target: Proto-oncogene tyrosine-protein kinase ROS (Homo sapiens) (UniProt P08922); assay: Inhibition of human Ros at 10 uM after 60 mins by TR-FRET assay; values are per cent of control
[14] = target: Fibroblast growth factor receptor 1 (Homo sapiens) (UniProt P11362); assay: Inhibition of human FGFR1 at 10 uM after 60 mins by TR-FRET assay; values are per cent of control
Sequence of Fibroblast growth factor receptor 1 (Homo sapiens) (P11362 22-822 limits assumed): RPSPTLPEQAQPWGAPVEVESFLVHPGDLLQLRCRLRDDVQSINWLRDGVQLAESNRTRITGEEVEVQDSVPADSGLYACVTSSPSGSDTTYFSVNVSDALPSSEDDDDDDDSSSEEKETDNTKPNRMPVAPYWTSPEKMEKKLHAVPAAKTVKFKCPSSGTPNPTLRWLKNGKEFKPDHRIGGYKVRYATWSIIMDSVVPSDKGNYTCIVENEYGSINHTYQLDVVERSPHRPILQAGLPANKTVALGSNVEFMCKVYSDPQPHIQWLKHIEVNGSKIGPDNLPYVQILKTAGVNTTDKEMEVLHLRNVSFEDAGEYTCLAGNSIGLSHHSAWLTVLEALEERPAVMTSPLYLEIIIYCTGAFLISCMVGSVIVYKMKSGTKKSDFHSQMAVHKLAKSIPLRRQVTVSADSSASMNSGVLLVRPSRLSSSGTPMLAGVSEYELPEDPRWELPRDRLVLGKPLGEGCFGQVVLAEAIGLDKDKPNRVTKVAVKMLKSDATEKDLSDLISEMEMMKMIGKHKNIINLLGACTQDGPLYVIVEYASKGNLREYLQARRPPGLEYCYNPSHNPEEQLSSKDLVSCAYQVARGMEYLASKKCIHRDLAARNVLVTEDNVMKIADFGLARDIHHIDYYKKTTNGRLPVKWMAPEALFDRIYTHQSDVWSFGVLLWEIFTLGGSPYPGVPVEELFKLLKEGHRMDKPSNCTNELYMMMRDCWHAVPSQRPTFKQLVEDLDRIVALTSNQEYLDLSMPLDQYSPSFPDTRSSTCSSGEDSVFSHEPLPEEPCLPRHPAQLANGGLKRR

[15] = target: Ribosomal protein S6 kinase alpha-3 (Homo sapiens) (UniProt P51812); assay: Inhibition of human Rsk2 at 10 uM after 60 mins by TR-FRET assay; details: values are per cent of control
[16] = target: ALK tyrosine kinase receptor (Homo sapiens) (UniProt Q9UM73); assay: Inhibition of human ALK at 10 uM after 60 mins by TR-FRET assay; values are per cent of control
[17] = target: T1, Aurora kinase A (Homo sapiens) (UniProt O14965); assay: Inhibition of human Aurora-A at 10 uM after 60 mins by TR-FRET assay; values are per cent of control
T1 sequence (whole entry): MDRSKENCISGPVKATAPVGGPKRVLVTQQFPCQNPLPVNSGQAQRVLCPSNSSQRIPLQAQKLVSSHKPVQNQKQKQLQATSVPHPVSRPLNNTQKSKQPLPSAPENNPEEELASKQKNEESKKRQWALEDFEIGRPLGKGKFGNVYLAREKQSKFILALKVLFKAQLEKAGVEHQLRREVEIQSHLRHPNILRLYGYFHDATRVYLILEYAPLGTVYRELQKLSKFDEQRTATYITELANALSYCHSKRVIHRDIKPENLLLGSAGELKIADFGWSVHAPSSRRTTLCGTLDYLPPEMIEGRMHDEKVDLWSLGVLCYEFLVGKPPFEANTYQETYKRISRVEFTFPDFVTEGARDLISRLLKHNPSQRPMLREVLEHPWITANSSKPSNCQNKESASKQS

[18] = target: Insulin-like growth factor 1 receptor (Homo sapiens) (UniProt P08069); assay: Inhibition of human IGF-1R at 10 uM after 60 mins by TR-FRET assay; values are per cent of control
[19] = target: Tyrosine-protein kinase ZAP-70 (Homo sapiens) (UniProt P43403); assay: Inhibition of human ZAP-70 at 10 uM after 60 mins by TR-FRET assay; values are per cent of control
[20] = target: Serine/threonine-protein kinase WNK3 (Homo sapiens) (UniProt Q9BYP7); assay: Inhibition of human WNK3 at 10 uM after 60 mins by TR-FRET assay; values are per cent of control
[21] = target: Activated CDC42 kinase 1 (Homo sapiens) (UniProt Q07912); assay: Inhibition of human ACK1 at 10 uM after 60 mins by TR-FRET assay; values are per cent of control
[22] = target: Ribosomal protein S6 kinase alpha-1 (Homo sapiens) (UniProt Q15418); assay: Inhibition of human Rsk1 at 10 uM after 60 mins by TR-FRET assay; details: values are per cent of control
[23] = test system: Tyrosine-protein kinase ABL1 (Homo sapiens), P00519 [M351T]; assay: Inhibition of human Abl M351T mutant at 10 uM after 60 mins by TR-FRET assay; values are per cent of control
[24] = target: Calcium/calmodulin-dependent protein kinase type IV (Homo sapiens) (UniProt Q16566); assay: Inhibition of human CaMK4 at 10 uM after 60 mins by TR-FRET assay; values are per cent of control
[25] = target: Serine/threonine-protein kinase D2 (Homo sapiens) (UniProt Q9BZL6); assay: Inhibition of human PKD2 at 10 uM after 60 mins by TR-FRET assay; values are per cent of control

Compound S=c1[nH]nc(-c2ccncc2)n1-c1ccc2ccccc2c1 has a residual activity [1] of 93%, a residual activity [2] of 99% and a residual activity [3] of 108%. It also gave a residual activity [4] of 105%, a residual activity [5] of 109% and a residual activity [6] of 107%. For the same compound, the residual activity [7] was 107%, the residual activity [8] was 112% and the residual activity [9] was 107%. It also gave a residual activity [10] of 107%, a residual activity [11] of 79% and a residual activity [12] of 90%. For the same compound, the residual activity [13] was 100%, the residual activity [14] was 98% and the residual activity [15] was 98%. It also gave a residual activity [16] of 101%, a residual activity [17] of 99% and a residual activity [18] of 115%. The residual activity [19] was 100%, the residual activity [20] was 100% and the residual activity [21] was 103%. It also gave a residual activity [22] of 105%, a residual activity [23] of 109% and a residual activity [24] of 112%. The residual activity [25] was 110%.
